Experimental data reported in US8012987B2, “Indolo[2,1-b] quinazole-6,12-dione antimalarial compounds and methods of treating malaria therewith” (The United States of America as represented by the …, priority 1998, dated 2011).
Values after ≈ are worked out from the molar mass of the structure shown. Where two headings read alike, the source gives them in different places.

Key:
[1] = tested on: Plasmodium falciparum clone CDC Sierra Leone I (D-6); assay: In vitro inhibition of [3H]hypoxanthine uptake, P. falciparum D-6 clone; assay type: cell-based; conditions: Plasmodium falciparum, read-out: IC50 (D-6)
Protocol: (§1) The in vitro assays were conducted by using a modification of the semiautomated microdilution technique of Desjardins et al.^11 and Chulay et al.^12 Two strains of Plasmodium falciparum clones, from CDC Indochina III (W-2), CDC Sierra Leone I (D-6). […] These solutions were subsequently serially diluted 2-fold with a Biomek 1000® (Beckman, Fullerton, Calif.) over 11 different concentrations. The parasites were exposed to serial dilutions of each compound for 48 h and incubated at 37° C. with 5% O2, 5% CO2, and 90% N2 prior to the addition of [^3H]hypoxanthine. […] Uptake of [^3H]hypoxanthine was measured with a Packard Topcount scintillation counter. […] The values without parentheses indicate culture in blood serum which more closely resemble conditions in a living animal.
(§2) The numbers associated with both W2 and D6 refer to IC50 values and the units are ng/ml.

[2] = tested on: Plasmodium falciparum clone CDC Indochina III (W-2); assay: In vitro inhibition of [3H]hypoxanthine uptake, P. falciparum W-2 clone; assay type: cell-based; conditions: Plasmodium falciparum, read-out: IC50 (W-2)
Protocol: as §1, §2

[3] = values in parentheses: culture medium with 10% Albumax I

Structure (SMILES) | IC50 [1, 3] [µg/mL] | IC50 [2, 3] [µg/mL] | IC50 [1] [µg/mL] | IC50 [2] [µg/mL]
CCCCCCCCc1ccc2c(c1)C(=O)c1nc3ccncc3c(=O)n1-2 [Example 41] | 0.0123 (≈ 0.0341 µM) | 0.00766 (≈ 0.0212 µM) |  | 
O=C1c2cc(Cl)ccc2-n2c1nc1ccc(I)cc1c2=O [Example 42] | 0.0764 (≈ 0.187 µM) | 0.0632 (≈ 0.155 µM) |  | 
O=C(N/N=C1\c2ccccc2-n2c1nc1ccccc1c2=O)c1ccncc1 [Example 43] | 38.2 (≈ 104 µM) | 23 (≈ 62.6 µM) |  | 
CCCCCCCCc1ccc2nc3n(c(=O)c2c1)-c1ccc(Cl)cc1C3=O [Example 44] | 6.92 (≈ 17.5 µM) | 5.86 (≈ 14.8 µM) |  | 
CCN(CCN(C)C)c1ccc2c(=O)n3c(nc2c1)C(=O)c1cc(Cl)ccc1-3 [Example 49] | 0.0739 (≈ 0.186 µM) | 0.0747 (≈ 0.188 µM) |  | 
O=C1c2cc(Cl)ccc2-n2c1nc1ncncc1c2=O [Example 50] | 0.0442 (≈ 0.155 µM) | 0.0112 (≈ 0.0392 µM) |  | 
O=C1/C(=c2\c3ccccc3n3c(=O)c4ccccc4nc23)Nc2ccccc21 [Example 51] |  |  | 8.69 (≈ 23.9 µM) | 8.76 (≈ 24.1 µM)
O=C1c2ccccc2-n2c1nc1ccncc1c2=O [Example 52] | 0.0733 (≈ 0.294 µM) | 0.0647 (≈ 0.26 µM) |  | 
CCOC(=O)c1nc2ccccc2c(=O)n1-c1ccccc1 [Example 53] | 9.01 (≈ 30.6 µM) | 4.87 (≈ 16.6 µM) |  | 
Cc1ncc2c(=O)n3c(nc2n1)C(=O)c1cc(I)ccc1-3 [Example 54] | 0.0746 (≈ 0.191 µM) | 0.124 (≈ 0.318 µM) |  | 
Cc1ncc2c(=O)n3c(nc2n1)C(=O)c1ccccc1-3 [Example 56] | 0.216 (≈ 0.817 µM) | 0.117 (≈ 0.443 µM) |  | 
CN(CC(=O)O)c1ccc2c(=O)n3c(nc2c1)C(=O)c1cc(Cl)ccc1-3 [Example 60] | 0.0781 (≈ 0.211 µM) | 0.0679 (≈ 0.184 µM) |  | 
CN(CCOC(=O)CCC(=O)O)c1ccc2c(=O)n3c(nc2c1)C(=O)c1cc(Cl)ccc1-3 [Example 61] | 0.247 (≈ 0.542 µM) | 0.187 (≈ 0.41 µM) |  | 
COCc1ccc2c(c1)C(=O)c1nc3ccncc3c(=O)n1-2 [Example 62] | 0.0313 (≈ 0.107 µM) | 0.016 (≈ 0.0546 µM) |  | 

Second part, led by results:

IC50 [1, 3] [µg/mL] | IC50 [2, 3] [µg/mL] | Structure (SMILES) | IC50 [1] [µg/mL] | IC50 [2] [µg/mL]
0.259 (≈ 0.634 µM) | 0.154 (≈ 0.377 µM) | CCOC(=O)C(O)(C(=O)OCC)C1c2ccccc2-n2c1nc1ccccc1c2=O (stereo not drawn) [Example 65] |  | 
0.517 (≈ 1.38 µM) | 0.449 (≈ 1.2 µM) | CN1CCN(/N=C\c2ccc3c(c2)C(=O)c2nc4ccncc4c(=O)n2-3)CC1 [Example 66] |  | 
4.44 (≈ 12.7 µM) | 4.42 (≈ 12.7 µM) | O=c1c2ccccc2nc2/c(=C/C=C/c3ccccc3)c3ccccc3n12 [Example 67] |  | 
0.143 (≈ 0.397 µM) | 0.12 (≈ 0.332 µM) | CCCCCCC(C)c1ccc2c(c1)C(=O)c1nc3ccncc3c(=O)n1-2 (stereo not drawn) [Example 71] |  | 
7.86 (≈ 18.1 µM) | 7.46 (≈ 17.2 µM) | CCCCCCCCc1ccc2c(c1)C(=O)c1nc3cc(N(C)CCO)ccc3c(=O)n1-2 [Example 72] |  | 
0.534 (≈ 1.44 µM) | 0.573 (≈ 1.55 µM) | COc1cccc2c(=O)n3c(nc12)/c(=C/c1ccccc1)c1cc(F)ccc13 [Example 75] |  | 
0.224 (≈ 0.49 µM) | 0.16 (≈ 0.35 µM) | CCOC(=O)C(O)(C(=O)OCC)C1c2cc(F)ccc2-n2c1nc1c(OC)cccc1c2=O (stereo not drawn) [Example 76] |  | 
0.22 (≈ 0.657 µM) | 0.165 (≈ 0.493 µM) | O=C1c2cc(C3OCCCO3)ccc2-n2c1nc1ccncc1c2=O [Example 77] |  | 
0.07 (≈ 0.173 µM) | 0.0688 (≈ 0.17 µM) | CN(CCO)c1ccc2c(=O)n3c(nc2c1)C(=O)c1cc(OC(F)(F)F)ccc1-3 [Example 79] |  | 
7.97 (≈ 27.3 µM) | 6.9 (≈ 23.6 µM) | O=c1c2ccccc2nc2n1-c1ccccc1C21OCCO1 [Example 80] |  | 
0.11 (≈ 0.303 µM) | 0.0739 (≈ 0.203 µM) | CC1(C)COC(c2ccc3c(c2)C(=O)c2nc4ccncc4c(=O)n2-3)OC1 [Example 81] |  | 
0.0628 (≈ 0.239 µM) | 0.124 (≈ 0.471 µM) | Cc1ccc2c(c1)C(=O)c1nc3ccncc3c(=O)n1-2 [Example 82] |  | 
1.71 (≈ 4.12 µM) | 0.938 (≈ 2.26 µM) | O=C1c2cc(C(O)(C(F)(F)F)C(F)(F)F)ccc2-n2c1nc1ccncc1c2=O [Example 84] |  | 
0.136 (≈ 0.358 µM) | 0.105 (≈ 0.278 µM) | COCCOC(c1ccc2c(c1)C(=O)c1nc3ccncc3c(=O)n1-2)C(C)C (stereo not drawn) [Example 85] |  | 
0.49 (≈ 1.24 µM) | 0.177 (≈ 0.448 µM) | O=C(N/N=C\c1ccc2c(c1)C(=O)c1nc3ccncc3c(=O)n1-2)c1ccncc1 [Example 88] |  | 
0.112 (≈ 0.311 µM) | 0.0688 (≈ 0.191 µM) | O=C1c2cc(/C=N/N3CCCCC3)ccc2-n2c1nc1ccncc1c2=O [Example 89] |  | 
